According to patent US20230348978A1, “TREATMENT OF ALZHEIMER'S DISEASE” (SELONTERRA, INC., priority 2020, published 2023):

System: E4E4 neurons
Assay: qPCR gene expression in E4E4 neurons treated with GPR4 agonist
Format: cell-based, human
Settings: six hours, vs E4E4 vehicle-treated neurons
Excerpt: Example 1: Cultivation of human isogenic neurons carrying either the homozygous APOE4 genotype (E4E4) or the homozygous APOE3 genotype (E3E3). Commercially available human isogenic neurons were acquired from Fujifilm Cellular Dynamics Inc. The homozygous APOE4 genotype (E4E4) neurons were designated DDP-NRC-1× 01434.779 and herein they are referred to as E4E4 neurons. The homozygous APOE3 genotype (E3E3) neurons were designated R1013 and herein they are referred to as E3E3 neurons. The neurons were plated and cultivated in 96-well plates. Prior to plating of neurons, the manufacturer supplied complete maintenance medium was prepared and stored at 4 degrees Celsius. The 96-well plates were double coated with poly-L-ornithin (PLO Sigma; P4957) and laminin (Sigma; L2020) by first coating the wells with poly-L-ornithin overnight at 4 degrees Celsius. Wells were rinsed with phosphate-buffered saline and then laminin diluted in phosphate-buffered saline at a concentration of 10 micrograms/milliliter was added for three hours. Complete maintenance medium was equilibrated to room temperature. Neurons were thawed for three minutes in a 37 degrees Celsius water bath. The content of the vial was transferred to a 50 ml conical tube by adding one milliliter of room-temperature equilibrated complete maintenance medium and suspending the neurons. The neuron suspension was transferred to the 50 ml conical tube. This neuron suspension was further diluted by addition of eight milliliter of complete maintenance medium. A viable neuron count was performed and the neurons were plated into individual wells of a 96-well plate at a neuronal seed density of 125,000 neurons per cm^2. The E3E3 and the E4E4 containing 96-well plates were transferred into a cell incubator and incubated at 37 degrees Celsius and 5% CO2. E3E3 and E4E4 neurons plated in this way were allowed to attach to the wells of the 96-well plate for 24 hours at which time a 100% medium change to fresh complete maintenance medium was performed. The E3E3 and E4E4 neurons were then continued to be cultivated at 37 degrees Celsius and 5% CO2. On Day 5 after plating a 50% medium change was performed by removal of 50% of the cell supernatant and addition of the same volume of fresh complete maintenance medium and then the 96-well plates were continued to be cultivated at 37 degrees Celsius and 5% CO2. On Day 9 after plating, a 50% medium change was performed by removal of 50% of the cell supernatant and addition of the same volume of fresh complete maintenance medium. This medium change was performed before neurons were treated with compounds on Day 9 after plating.
Example 2: Treatment of E4E4 neurons with the exemplary GPR4 agonist SLC2004 and vehicle and E3E3 neurons with vehicle. E4E4 and E3E3 neurons were plated and cultivated in individual wells of a 96-well plate as described in Example 1. The compound spingosylphosphorylcholine (SLC2004) (Sigma; S4257) is a lyophilized powder with a white to yellow appearance and a molecular weight of 464.62 Dalton. A fresh stock solution of SLC2004 was prepared in methanol as vehicle at a stock concentration of 300 millimolar. This stock solution was further diluted to yield two 21-fold concentrated solutions of the intended in-well concentrations. For one of the 21-fold concentrated SLC2004 solution, a final SLC2004 in-well concentration of 3 micromolar was achieved by adding 10 microliters of this 21-fold concentrated SLC2004 solution to 200 microliters of complete maintenance medium in each well of the 96-well plate. For the second 21-fold concentrated SLC2004 solution, a final SLC2004 in-well concentration of 10 micromolar was achieved by adding 10 microliters of this 21-fold concentrated SLC2004 solution to 200 microliters of complete maintenance medium in each well of the 96-well plate. All wells with SLC2004-treated neurons contained the same amount of 0.01% methanol in complete maintenance medium. […]

## CCCCCCCCCCCCC/C=C/[C@@H](O)[C@@H](N)COP(=O)([O-])OCC[N+](C)(C)C [SLC2004, sphingosylphosphorylcholine]
3 micromolar
  expression of CCND3: upregulated
  expression of ITGB3: downregulated
  expression of VCL: upregulated
10 micromolar
  expression of BDNF: upregulated
  expression of CTGF: upregulated
  expression of YAP1: upregulated
